In ChEMBL document CHEMBL3045593, “Synthesis and Fungicidal Activities of 3-(-Alkoxyiminobenzyl)isoxazole Derivatives” (J Pestic Sci, 1999):

Experiments:
[1] = system: Blumeria graminis f. sp. tritici; assay: Fungicidal activity against Blumeria graminis f. sp. triticii inoculated on wheat seedlings followed by 31.3 ppm compound application 7 days after fungal inoculation assessed as wheat powdery mildew disease controlling activity relative to untreated control; type: functional
[2] = system: Golovinomyces cichoracearum; assay: Fungicidal activity against Golovinomyces cichoracearum in cucumber seedlings assessed as cucumber powdery mildew disease controlling activity at 7.8 ppm applied through preventive application relative to untreated control; type: functional
[3] = system: Blumeria graminis f. sp. tritici; assay: Fungicidal activity against Blumeria graminis f. sp. triticii inoculated on wheat seedlings followed by 500 ppm compound application 7 days after fungal inoculation assessed as wheat powdery mildew disease controlling activity relative to untreated control; type: functional
[4] = system: Golovinomyces cichoracearum; assay: Fungicidal activity against Golovinomyces cichoracearum in cucumber seedlings assessed as cucumber powdery mildew disease controlling activity at 31.3 ppm applied through preventive application relative to untreated control; type: functional
[5] = system: Blumeria graminis f. sp. tritici; assay: Fungicidal activity against Blumeria graminis f. sp. triticii inoculated on wheat seedlings followed by 125 ppm compound application 7 days after fungal inoculation assessed as wheat powdery mildew disease controlling activity relative to untreated control; type: functional
[6] = system: Golovinomyces cichoracearum; assay: Fungicidal activity against Golovinomyces cichoracearum in cucumber seedlings assessed as cucumber powdery mildew disease controlling activity at 500 ppm applied through preventive application relative to untreated control; type: functional
[7] = system: Blumeria graminis f. sp. tritici; assay: Fungicidal activity against Blumeria graminis f. sp. triticii inoculated on wheat seedlings followed by 400 ppm compound application 7 days after fungal inoculation assessed as wheat powdery mildew disease controlling activity relative to untreated control; type: functional
[8] = system: Oculimacula yallundae; assay: Fungicidal activity against Oculimacula yallundae inoculated oat seeds followed by transfer of inoculated oat seedlings on foot of wheat seedlings followed by 400 ppm compound spraying assessed as degree of wheat eye spot infection (reference value: 82.9 %); type: functional
[9] = system: Blumeria graminis f. sp. tritici; assay: Fungicidal activity against Blumeria graminis f. sp. triticii inoculated on wheat seedlings followed by 100 ppm compound application 7 days after fungal inoculation assessed as wheat powdery mildew disease controlling activity relative to untreated control; type: functional
[10] = system: Oculimacula yallundae; assay: Fungicidal activity against Oculimacula yallundae inoculated oat seeds followed by transfer of inoculated oat seedlings on foot of wheat seedlings followed by 100 ppm compound spraying assessed as wheat eye spot disease control activity relative to untreated control; type: functional
[11] = system: Blumeria graminis f. sp. tritici; assay: Fungicidal activity against Blumeria graminis f. sp. triticii inoculated on wheat seedlings followed by 100 ppm compound application 7 days after fungal inoculation assessed as infected leaf area (reference value: 37.8%); type: functional
[12] = system: Blumeria graminis f. sp. tritici; assay: Fungicidal activity against Blumeria graminis f. sp. triticii inoculated on wheat seedlings followed by 400 ppm compound application 7 days after fungal inoculation assessed as infected leaf area (reference value: 37.8%); type: functional
[13] = system: Oculimacula yallundae; assay: Fungicidal activity against Oculimacula yallundae inoculated oat seeds followed by transfer of inoculated oat seedlings on foot of wheat seedlings followed by 400 ppm compound spraying assessed as wheat eye spot disease control activity relative to untreated control; type: functional
[14] = system: Oculimacula yallundae; assay: Fungicidal activity against Oculimacula yallundae assessed as inhibition of mycelial growth; type: functional, organism-based
[15] = system: Blumeria graminis f. sp. tritici; assay: Fungicidal activity against Blumeria graminis f. sp. triticii inoculated on wheat seedlings followed by 7.8 ppm compound application 7 days after fungal inoculation assessed as wheat powdery mildew disease controlling activity relative to untreated control; type: functional
[16] = system: Oculimacula yallundae; assay: Fungicidal activity against Oculimacula yallundae inoculated oat seeds followed by transfer of inoculated oat seedlings on foot of wheat seedlings followed by 100 ppm compound spraying assessed as degree of wheat eye spot infection (reference value: 82.9 %); type: functional
[17] = system: Golovinomyces cichoracearum; assay: Fungicidal activity against Golovinomyces cichoracearum in cucumber seedlings assessed as cucumber powdery mildew disease controlling activity at 125 ppm applied through preventive application relative to untreated control; type: functional
[18] = system: Blumeria graminis f. sp. tritici; assay: Fungicidal activity against Blumeria graminis f. sp. triticii inoculated on wheat seedlings followed by 125 ppm compound application 7 days after fungal inoculation assessed as infected leaf area (reference value: 37.8%); type: functional

SMILES | Activity [2] [%] | Activity [3] [%] | Activity [4] [%] | Activity [5] [%] | further results
CON=C(c1ccon1)c1ccccc1COc1cc(Cl)ccc1Cl | 90 |  |  |  | Activity [1]: 90%
CON=C(c1ccon1)c1ccccc1COc1c(Cl)cccc1Cl |  | <90 | 90 |  | 
CON=C(c1ccon1)c1ccccc1COc1ccc(Cl)c(Cl)c1 |  |  | 90 | 90 | 
CON=C(c1ccon1)c1ccccc1COc1cc(Cl)cc(Cl)c1Cl |  | <90 |  |  | Activity [6]: 90%
CON=C(c1ccon1)c1ccccc1COc1cccc(C)c1C | 90 |  |  | 90 | 
CON=C(c1ccon1)c1ccccc1COc1ccc(C)cc1C | 90 |  |  | 90 | 
CON=C(c1ccon1)c1ccccc1COc1cc(C)ccc1C | 90 |  |  |  | Activity [7]: 86%; Activity [8]: 19.8%; Activity [9]: 78%; Activity [10]: 56%; Activity [11]: 9.3%; Activity [12]: 5.8%; Activity [13]: 76%; EC50 [14]: 1.05 ppm; Activity [15]: 90%; Activity [16]: 36.9%
CON=C(c1ccon1)c1ccccc1COc1c(C)cccc1C |  |  |  | 90 | Activity [17]: 90%
CON=C(c1ccon1)c1ccccc1COc1ccc(C)c(C)c1 |  |  | 90 | 90 | 
CON=C(c1ccon1)c1ccccc1COc1cc(C)cc(C)c1C | 90 |  |  |  | EC50 [14]: 3.9 ppm; Activity [15]: 90%
CON=C(c1ccon1)c1ccccc1COc1ccc(Cl)cc1C | 90 |  |  |  | Activity [1]: 90%
Cc1ccc(C)c(OCc2ccccc2C(=NO)c2ccon2)c1 |  | <90 |  |  | Activity [17]: 90%
CCON=C(c1ccon1)c1ccccc1COc1cc(C)ccc1C |  | <90 |  |  | Activity [6]: <90%
CCCON=C(c1ccon1)c1ccccc1COc1cc(C)ccc1C |  | <90 |  |  | Activity [6]: <90%
Cc1ccc(C)c(OCc2ccccc2C(=NOC(C)C)c2ccon2)c1 |  | <90 |  |  | Activity [6]: <90%
C=CCON=C(c1ccon1)c1ccccc1COc1cc(C)ccc1C |  | <90 |  |  | Activity [6]: <90%
CNC(=O)/C(=N/OC)c1ccccc1COc1cc(C)ccc1C |  |  |  |  | Activity [7]: 63%; Activity [8]: 36.7%; Activity [9]: 69%; Activity [10]: 20%; Activity [11]: 13%; Activity [12]: 15.5%; Activity [13]: 56%; EC50 [14]: 1.09 ppm; Activity [16]: 66.5%
CON=C(c1ccon1)c1ccccc1COc1ccc(Cl)cc1 | 90 | 90 |  |  | 
CON=C(c1ccon1)c1ccccc1COc1ccccc1C | 90 |  |  |  | EC50 [14]: 1.42 ppm; Activity [15]: 90%
CON=C(c1ccon1)c1ccccc1COc1cccc(C)c1 |  |  | 90 | 90 | 

SMILES | Activity [2] [%] | Activity [3] [%] | Activity [4] [%] | Activity [5] [%] | further results
CON=C(c1ccon1)c1ccccc1COc1ccc(C)cc1 | 90 |  |  | 90 | 
CCc1ccccc1OCc1ccccc1C(=NOC)c1ccon1 |  |  | 90 | 90 | 
CON=C(c1ccon1)c1ccccc1COc1ccccc1OC |  | <90 |  |  | Activity [17]: 90%
CON=C(c1ccon1)c1ccccc1COc1ccccc1Br | 90 |  |  | 90 | 
CON=C(c1ccon1)c1ccccc1COc1ccccc1C(F)(F)F |  | 90 | 90 |  | 
CON=C(c1ccon1)c1ccccc1COc1ccccc1[N+](=O)[O-] |  | <90 |  |  | Activity [6]: <90%
CON=C(c1ccon1)c1ccccc1COc1ccc(F)cc1F | 90 |  |  | 90 | 
CON=C(c1ccon1)c1ccccc1COc1cc(F)ccc1F |  |  | 90 | 90 | 
CON=C(c1ccon1)c1ccccc1COc1ccc(Cl)cc1Cl | 90 | <90 |  |  | 
CON=C(c1ccon1)c1ccccc1Oc1ccccc1 |  | 90 | 90 |  | 
CON=C(c1ccon1)c1ccccc1OCc1ccccc1 |  |  |  |  | Activity [17]: 90%
CON=C(c1ccon1)c1ccccc1COc1ccccc1 |  | 90 | 90 |  | 
CON=C(c1ccon1)c1ccccc1COc1ccc(F)cc1 |  | 90 | 90 |  | 
CON=C(c1ccon1)c1ccccc1COc1cccc(F)c1 |  | 90 |  |  | Activity [17]: 90%
CON=C(c1ccon1)c1ccccc1COc1ccccc1F |  |  | 90 | 90 | 
CON=C(c1ccon1)c1ccccc1COc1ccccc1Cl | 90 |  |  | 90 | 
CON=C(c1ccon1)c1ccccc1COc1cccc(Cl)c1 |  | 90 | 90 |  | 
CCCN(CCOc1c(Cl)cc(Cl)cc1Cl)C(=O)n1ccnc1 [PROCHLORAZ] |  |  |  |  | Activity [8]: 28.3%; Activity [10]: 23%; Activity [13]: 66%; EC50 [14]: 0.04 ppm; Activity [16]: 63.5%
CC(C)(C)C(=O)C(Oc1ccc(Cl)cc1)n1cncn1 (stereo not drawn) [TRIADIMEFON] |  |  |  | 97 | Activity [18]: 1.4%
